Measurements: PubChem BioAssay AID248 (DTP/NCI, 2004)
“And” between values parts separate entries of the source, which are not always exact repeats. Equal entries are not always repeated. Inconclusive results and toxic doses are left out. No stated cut-off is given here; in the data, active means T/C of 150% or more; inactive means T/C below 125%.

System: L1210 leukemia ip in BDF1 mice, survival T/C
Assay: NCI In Vivo Anticancer Drug Screen. Data for tumor model L1210 Leukemia (intraperitoneal) in B6D2F1 (BDF1) mice
Settings: endpoint: mean survival time, higher = longer survival
Summary of the method: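 Tumor cells were implanted, animals were treated, and survival was followed. The result divides the treated measurement by the vehicle-control measurement.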

[1] = dose: 100.0 mg/kg/injection, schedule: Q01DX009 (ip), vehicle: Klucel (hydroxypropylcellulose) (HPC)
[2] = dose: 100.0 mg/kg/injection, schedule: Q04DX003 (ip), vehicle: Klucel (hydroxypropylcellulose) (HPC)
[3] = dose: 200.0 mg/kg/injection, schedule: Q04DX003 (ip), vehicle: Klucel (hydroxypropylcellulose) (HPC)
[4] = dose: 100.0 mg/kg/injection, schedule: Q01DX001 (ip), vehicle: saline
[5] = dose: 200.0 mg/kg/injection, schedule: Q01DX001 (ip), vehicle: saline
[6] = dose: 400.0 mg/kg/injection, schedule: Q01DX001 (ip), vehicle: saline
[7] = dose: 100.0 mg/kg/injection, schedule: Q01DX009 (ip), vehicle: saline with Tween-80
[8] = dose: 200.0 mg/kg/injection, schedule: Q01DX009 (ip), vehicle: saline with Tween-80
[9] = dose: 400.0 mg/kg/injection, schedule: Q01DX009 (ip), vehicle: saline with Tween-80
[10] = dose: 100.0 mg/kg/injection, schedule: Q04DX003 (ip), vehicle: saline with Tween-80
[11] = dose: 200.0 mg/kg/injection, schedule: Q04DX003 (ip), vehicle: saline with Tween-80
[12] = dose: 400.0 mg/kg/injection, schedule: Q04DX003 (ip), vehicle: saline with Tween-80
[13] = dose: 100.0 mg/kg/injection, schedule: Q01DX009 (ip), vehicle: saline
[14] = dose: 100.0 mg/kg/injection, schedule: Q04DX003 (ip), vehicle: saline
[15] = dose: 200.0 mg/kg/injection, schedule: Q01DX009 (ip), vehicle: saline
[16] = dose: 200.0 mg/kg/injection, schedule: Q04DX003 (ip), vehicle: saline
[17] = dose: 400.0 mg/kg/injection, schedule: Q04DX003 (ip), vehicle: saline
[18] = dose: 400.0 mg/kg/injection, schedule: Q04DX003 (ip), vehicle: Klucel (hydroxypropylcellulose) (HPC)

Measured: T/C

CCc1ccccc1NC(=O)Sc1cccc(C)c1
inactive: dose: 25.0 mg/kg/injection, schedule: Q01DX009 (ip), vehicle: Klucel (hydroxypropylcellulose) (HPC) 96 % of control | dose: 50.0 mg/kg/injection, schedule: Q01DX009 (ip), vehicle: Klucel (hydroxypropylcellulose) (HPC) 96 % of control | [1] 98 % of control and 103 % of control | [2] 100 % of control | [3] 105 % of control

Nc1cc(Nc2cccc(Br)c2)nc(N)n1
inactive: dose: 100.0 mg/kg/injection, schedule: Q04DX002 (ip), vehicle: Klucel (hydroxypropylcellulose) (HPC) 97 % of control | dose: 200.0 mg/kg/injection, schedule: Q04DX002 (ip), vehicle: Klucel (hydroxypropylcellulose) (HPC) 108 % of control

CCC(CC)c1cccc2c(C(CC)CC)cccc12
inactive: [4] 98 % of control | [5] 96 % of control | [6] 96 % of control

C#CCn1c2ccccc2c2ccccc21
inactive: [4] 97 % of control | [7] 95 % of control | [5] 103 % of control | [8] 101 % of control | [6] 103 % of control | [9] 96 % of control

CSc1nc2cc(C)c(C)cc2[nH]1
inactive: [10] 107 % of control | [11] 94 % of control | [12] 94 % of control

O/N=C/c1ccc(Cc2ccccc2)o1
inactive: dose: 75.0 mg/kg/injection, schedule: Q01DX001 (ip), vehicle: carboxymethylcellulose (CMC) 97 % of control | dose: 150.0 mg/kg/injection, schedule: Q01DX001 (ip), vehicle: carboxymethylcellulose (CMC) 100 % of control | dose: 300.0 mg/kg/injection, schedule: Q01DX001 (ip), vehicle: carboxymethylcellulose (CMC) 96 % of control

CC(=O)Oc1c(C(C)(C)C)cc([N+](=O)[O-])c(C)c1[N+](=O)[O-]
inactive: dose: 25.0 mg/kg/injection, schedule: Q04DX002 (ip), vehicle: Klucel (hydroxypropylcellulose) (HPC) 95 % of control | dose: 50.0 mg/kg/injection, schedule: Q04DX002 (ip), vehicle: Klucel (hydroxypropylcellulose) (HPC) 97 % of control

COC(=O)C(C)=C1CCCCC1
inactive: [13] 106 % of control | [14] 93 % of control | [15] 96 % of control | [16] 98 % of control | dose: 400.0 mg/kg/injection, schedule: Q01DX009 (ip), vehicle: saline 96 % of control | [17] 95 % of control

Cc1c([N+](=O)[O-])cc(C(=O)c2ccccc2C(=O)O)cc1[N+](=O)[O-]
inactive: dose: 75.0 mg/kg/injection, schedule: Q04DX003 (ip), vehicle: Klucel (hydroxypropylcellulose) (HPC) 98 % of control | dose: 150.0 mg/kg/injection, schedule: Q04DX003 (ip), vehicle: Klucel (hydroxypropylcellulose) (HPC) 91 % of control | dose: 300.0 mg/kg/injection, schedule: Q04DX003 (ip), vehicle: Klucel (hydroxypropylcellulose) (HPC) 91 % of control

CCOC(=O)c1ccc(NC(=O)Nc2ccccc2C(F)(F)F)cc1
inactive: [1] 88 % of control | dose: 200.0 mg/kg/injection, schedule: Q01DX009 (ip), vehicle: Klucel (hydroxypropylcellulose) (HPC) 89 % of control | dose: 400.0 mg/kg/injection, schedule: Q01DX009 (ip), vehicle: Klucel (hydroxypropylcellulose) (HPC) 86 % of control

N#CS/C=C\C(N)=O
inactive: dose: 3.0 mg/kg/injection, schedule: Q01DX009 (ip), vehicle: Klucel (hydroxypropylcellulose) (HPC) 94 % of control | dose: 6.0 mg/kg/injection, schedule: Q01DX009 (ip), vehicle: Klucel (hydroxypropylcellulose) (HPC) 108 % of control | dose: 12.0 mg/kg/injection, schedule: Q01DX009 (ip), vehicle: Klucel (hydroxypropylcellulose) (HPC) 106 % of control | dose: 12.5 mg/kg/injection, schedule: Q01DX009 (ip), vehicle: Klucel (hydroxypropylcellulose) (HPC) 104 % of control | dose: 12.5 mg/kg/injection, schedule: Q04DX003 (ip), vehicle: Klucel (hydroxypropylcellulose) (HPC) 90 % of control

C/C=C/C(=O)OC1CC2OC3C=C(C)C4OC4C3(C)C1(C)C21CO1 (configuration not stated)
inactive: dose: 50.0 mg/kg/injection, schedule: Q01DX009 (ip), vehicle: saline 96 % of control | [13] 96 % of control | [14] 90 % of control | [15] 108 % of control | [16] 92 % of control | [17] 88 % of control

COC(=O)CNc1cccc([N+](=O)[O-])c1
inactive: [2] 95 % of control | [3] 102 % of control | [18] 101 % of control

CC1c2nc(N)nc(N)c2CN1C(=O)c1ccccc1 (configuration not stated)
inactive: dose: 100.0 mg/kg/injection, schedule: Q01DX001 (ip), vehicle: carboxymethylcellulose (CMC) 98 % of control | dose: 200.0 mg/kg/injection, schedule: Q01DX001 (ip), vehicle: carboxymethylcellulose (CMC) 98 % of control | dose: 400.0 mg/kg/injection, schedule: Q01DX001 (ip), vehicle: carboxymethylcellulose (CMC) 97 % of control

CC(=O)Oc1c(C)c(Br)c(OC(C)=O)c(-c2c(C)cc(C)c(Br)c2C)c1Br
inactive: dose: 100.0 mg/kg/injection, schedule: Q01DX001 (ip), vehicle: Klucel (hydroxypropylcellulose) (HPC) 87 % of control | [2] 100 % of control | dose: 200.0 mg/kg/injection, schedule: Q01DX001 (ip), vehicle: Klucel (hydroxypropylcellulose) (HPC) 95 % of control | [3] 95 % of control | dose: 400.0 mg/kg/injection, schedule: Q01DX001 (ip), vehicle: Klucel (hydroxypropylcellulose) (HPC) 95 % of control | [18] 101 % of control

NC(CCl)=NCc1ccccc1
inactive: dose: 6.25 mg/kg/injection, schedule: Q01DX009 (ip), vehicle: saline 97 % of control and 98 % of control | dose: 12.5 mg/kg/injection, schedule: Q01DX009 (ip), vehicle: saline 101 % of control and 115 % of control | dose: 25.0 mg/kg/injection, schedule: Q01DX001 (ip), vehicle: saline 98 % of control | dose: 25.0 mg/kg/injection, schedule: Q04DX002 (ip), vehicle: saline 105 % of control and 91 % of control | dose: 25.0 mg/kg/injection, schedule: Q04DX003 (ip), vehicle: saline 90 % of control | dose: 50.0 mg/kg/injection, schedule: Q01DX001 (ip), vehicle: saline 97 % of control | dose: 50.0 mg/kg/injection, schedule: Q04DX002 (ip), vehicle: saline 94 % of control and 89 % of control | dose: 50.0 mg/kg/injection, schedule: Q04DX003 (ip), vehicle: saline 97 % of control | [14] 95 % of control

CC1(C)N=C(N)N=C(N)N1c1cccc(CCCCOc2ccccc2)c1
inactive: dose: 6.25 mg/kg/injection, schedule: Q04DX003 (ip), vehicle: saline with Tween-80 101 % of control | dose: 12.5 mg/kg/injection, schedule: Q04DX003 (ip), vehicle: saline with Tween-80 106 % of control | dose: 25.0 mg/kg/injection, schedule: Q04DX003 (ip), vehicle: saline with Tween-80 95 % of control

O=[N+]([O-])c1ccc(N/N=C(\CCc2ccccc2)c2ccccc2)c([N+](=O)[O-])c1
inactive: dose: 50.0 mg/kg/injection, schedule: Q01DX009 (ip), vehicle: saline with Tween-80 93 % of control | [7] 96 % of control | [8] 86 % of control

COCCCNP(=O)(OC(C)C)OC(C)C
inactive: dose: 100.0 mg/kg/injection, schedule: Q01DX001 (ip), vehicle: acetone 109 % of control | dose: 100.0 mg/kg/injection, schedule: Q04DX003 (ip), vehicle: acetone 97 % of control | dose: 200.0 mg/kg/injection, schedule: Q01DX001 (ip), vehicle: acetone 98 % of control | dose: 200.0 mg/kg/injection, schedule: Q04DX003 (ip), vehicle: acetone 95 % of control | dose: 400.0 mg/kg/injection, schedule: Q01DX001 (ip), vehicle: acetone 110 % of control | dose: 400.0 mg/kg/injection, schedule: Q04DX003 (ip), vehicle: acetone 95 % of control

CCNC(=O)OCCN1C(=O)C2C3CCC(O3)C2C1=O (configuration not stated)
inactive: dose: 100.0 mg/kg/injection, schedule: Q01DX001 (ip), vehicle: saline with Tween-80 98 % of control | [10] 100 % of control | dose: 200.0 mg/kg/injection, schedule: Q01DX001 (ip), vehicle: saline with Tween-80 103 % of control | [11] 100 % of control | dose: 400.0 mg/kg/injection, schedule: Q01DX001 (ip), vehicle: saline with Tween-80 113 % of control | [12] 97 % of control

O=C(/C=C/c1ccc(Cl)cc1Cl)c1ccc(Cl)cc1
inactive: [7] 105 % of control | [10] 95 % of control | [8] 90 % of control | [11] 93 % of control | [9] 90 % of control | [12] 88 % of control
